Earlier results on one compound are cited in US20260335331A1, “ORAL FORMULATION OF DIAMINOPHENOTHIAZINES AND METHODS OF MAKING AND USING THE SAME IN THE TREATMENT AND/OR PREVENTION OF DISEASES” (priority 2022, published 2026).

The series has as its system Macrorhabdus ornithogaster. The settings on record: background statement.

`C[C@@H]1[C@H](O)[C@@H](C)/C=C/C=C/C=C/C=C/C=C/C=C/C=C/[C@H](O[C@@H]2O[C@H](C)[C@@H](O)[C@H](N)[C@@H]2O)C[C@@H]2O[C@](O)(C[C@@H](O)C[C@@H](O)[C@H](O)CC[C@@H](O)C[C@@H](O)CC(=O)O[C@H]1C)C[C@H](O)[C@H]2C(=O)O` [amphotericin B]: the “success in treatment of avian megalobacteriosis” value is “Some success has been observed”.
